Measured values reported in ChEMBL document CHEMBL5154876, “Design, synthesis and promising anti-tumor efficacy of novel imidazo[1,2-a]pyridine derivatives as potent autotaxin allosteric inhibitors” (Eur J Med Chem, 2022).
Calls of active or inactive are those of the source. No cut-off for these calls is given here.

Assays:
[1] = tested on: RAW264.7; test: Inhibition of colony formation in mouse RAW264.7 cells assessed as reduction in colony single area at 0.1 to 1 uM incubated for 72 hrs by crystal violet staining method; type: functional, cell-based; conditions: dose 0.1-1 µM
[2] = tested on: NCI-H2228; test: Cytotoxicity against human H2228 cells assessed as inhibition of cell growth incubated for 72 hrs by MTT assay; type: functional, cell-based; conditions: NCI-H2228, 72 h
[3] = tested on: RAW264.7; test: Induction of apoptosis in mouse RAW264.7 cells assessed as viable cells at 0.1 uM after 48 hrs by Annexin V-FITC/PI based flow cytometric analysis (RVB=94.1%); type: functional; conditions: read-out: Activity
[4] = tested on: RAW264.7; test: Induction of apoptosis in mouse RAW264.7 cells assessed as viable cells at 0.5 uM after 48 hrs by Annexin V-FITC/PI based flow cytometric analysis (RVB=94.1%); type: functional; conditions: read-out: Activity
[5] = tested on: RAW264.7; test: Cytotoxicity against mouse RAW264.7 cells assessed as inhibition of cell growth incubated for 72 hrs by MTT assay; type: functional, cell-based; conditions: RAW264.7, 72 h
[6] = tested on: RAW264.7; test: Induction of cell cycle arrest in mouse RAW264.7 cells assessed as accumulation of cells in G1 phase at 0.1 uM incubated for 24 hrs by PI/RNase staining based flow cytometric analysis (RVB = 55.06%); type: functional
[7] = tested on: RAW264.7; test: Induction of cell cycle arrest in mouse RAW264.7 cells assessed as accumulation of cells in G2 phase at 1 uM incubated for 24 hrs by PI/RNase staining based flow cytometric analysis (RVB = 10.90%); type: functional
[8] = tested on: RAW264.7; test: Induction of apoptosis in mouse RAW264.7 cells assessed as early apoptotic cells at 0.5 uM after 48 hrs by Annexin V-FITC/PI based flow cytometric analysis (RVB=5.57%); type: functional
[9] = tested on: RAW264.7; test: Induction of apoptosis in mouse RAW264.7 cells assessed as early apoptotic cells at 1 uM after 48 hrs by Annexin V-FITC/PI based flow cytometric analysis (RVB=5.57%); type: functional
[10] = tested on: RAW264.7; test: Induction of cell cycle arrest in mouse RAW264.7 cells assessed as accumulation of cells in S phase at 1 uM incubated for 24 hrs by PI/RNase staining based flow cytometric analysis (RVB = 34.03%); type: functional
[11] = tested on: MCF7; test: Cytotoxicity against human MCF-7 cells assessed as inhibition of cell growth incubated for 72 hrs by MTT assay; type: functional, cell-based; conditions: MCF7, 72 h
[12] = Acute toxicity in C57BL/6J mouse assessed as mortality at 1000 to 5000 mg/kg measured after 14 days; type: organism-based; conditions: in vivo, 336 h, dose 1000-5000 mg/kg, time 14 day
[13] = tested on: RAW264.7; test: Induction of cell cycle arrest in mouse RAW264.7 cells assessed as accumulation of cells in G1 phase at 0.5 uM incubated for 24 hrs by PI/RNase staining based flow cytometric analysis (RVB = 55.06%); type: functional
[14] = Acute toxicity in C57BL/6J mouse assessed as secretion in eye corner at 5000 mg/kg measured after 14 days; type: organism-based; conditions: in vivo, 336 h, time 14 day
[15] = tested on: RAW264.7; test: Induction of apoptosis in mouse RAW264.7 cells assessed as necrotic cells at 1 uM after 48 hrs by Annexin V-FITC/PI based flow cytometric analysis (RVB=0.26%); type: functional
[16] = tested on: RAW264.7; test: Induction of apoptosis in mouse RAW264.7 cells assessed as apoptotic cells by measuring blue fluorescence after 48 hrs by Hoechst33342 staining based fluorescence microscopy; type: functional, cell-based; conditions: dose 0.1-1 µM, DDE = dose-dependent effect
[17] = target: Autotaxin (Homo sapiens, UniProt Q13822); test: Negative allosteric modulation activity against human ATX using FS-3 as substrate preincubated for 45 mins followed by substrate addition and measured every 30 mins by multi-mode microplate reader
[18] = tested on: RAW264.7; test: Induction of apoptosis in mouse RAW264.7 cells assessed as viable cells at 0.25 uM after 48 hrs by Annexin V-FITC/PI based flow cytometric analysis (RVB=94.1%); type: functional; conditions: read-out: Activity
[19] = tested on: RAW264.7; test: Induction of cell cycle arrest in mouse RAW264.7 cells assessed as accumulation of cells in G2 phase at 0.5 uM incubated for 24 hrs by PI/RNase staining based flow cytometric analysis (RVB = 10.90%); type: functional
[20] = tested on: RAW264.7; test: Induction of cell cycle arrest in mouse RAW264.7 cells assessed as accumulation of cells in S phase at 0.1 uM incubated for 24 hrs by PI/RNase staining based flow cytometric analysis (RVB = 34.03%); type: functional
[21] = tested on: RAW264.7; test: Antimigratory activity against mouse RAW264.7 cells assessed as decrease in cell migration rate measured upto 72 hrs by scratch wound healing assay; type: functional, cell-based; conditions: DDE = dose-dependent effect
[22] = tested on: RAW264.7; test: Inhibition of colony formation in mouse RAW264.7 cells incubated for 72 hrs by crystal violet staining method; type: functional, cell-based; conditions: dose 0.1-1 µM, DDE = dose-dependent effect
[23] = tested on: RAW264.7; test: Induction of cell cycle arrest in mouse RAW264.7 cells assessed as accumulation of cells in S phase at 0.25 uM incubated for 24 hrs by PI/RNase staining based flow cytometric analysis (RVB = 34.03%); type: functional
[24] = tested on: RAW264.7; test: Induction of apoptosis in mouse RAW264.7 cells assessed as late apoptotic cells at 0.25 uM after 48 hrs by Annexin V-FITC/PI based flow cytometric analysis (RVB=0.098%); type: functional
[25] = tested on: RAW264.7; test: Induction of apoptosis in mouse RAW264.7 cells assessed as necrotic cells at 0.1 uM after 48 hrs by Annexin V-FITC/PI based flow cytometric analysis (RVB=0.26%); type: functional
[26] = tested on: RAW264.7; test: Induction of apoptosis in mouse RAW264.7 cells assessed as necrotic cells at 0.25 uM after 48 hrs by Annexin V-FITC/PI based flow cytometric analysis (RVB=0.26%); type: functional
[27] = tested on: RAW264.7; test: Induction of cell cycle arrest in mouse RAW264.7 cells assessed as accumulation of cells in G1 phase at 0.25 uM incubated for 24 hrs by PI/RNase staining based flow cytometric analysis (RVB = 55.06%); type: functional
[28] = tested on: RAW264.7; test: Induction of cell cycle arrest in mouse RAW264.7 cells assessed as accumulation of cells in G2 phase at 0.1 uM incubated for 24 hrs by PI/RNase staining based flow cytometric analysis (RVB = 10.90%); type: functional
[29] = tested on: NCI-H1581; test: Cytotoxicity against human NCI-H1581 cells assessed as inhibition of cell growth incubated for 72 hrs by MTT assay; type: functional, cell-based; conditions: NCI-H1581, 72 h
[30] = tested on: RAW264.7; test: Induction of apoptosis in mouse RAW264.7 cells assessed as late apoptotic cells at 1 uM after 48 hrs by Annexin V-FITC/PI based flow cytometric analysis (RVB=0.098%); type: functional
[31] = Acute toxicity in C57BL/6J mouse assessed as safety concern at 1000 to 5000 mg/kg measured after 14 days; type: organism-based; conditions: in vivo, 336 h, dose 1000-5000 mg/kg, time 14 day
[32] = tested on: RAW264.7; test: Induction of apoptosis in mouse RAW264.7 cells assessed as apoptotic cells measured after 48 hrs by acridine orange/ethidium bromide staining based fluorescence microscopy; type: functional, cell-based; conditions: dose 0.1-1 µM, DDE = dose-dependent effect
[33] = tested on: RAW264.7; test: Inhibition of colony formation in mouse RAW264.7 cells assessed as reduction in colony count at 0.1 to 1 uM incubated for 72 hrs by crystal violet staining method; type: functional, cell-based; conditions: dose 0.1-1 µM
[34] = tested on: RAW264.7; test: Induction of apoptosis in mouse RAW264.7 cells assessed as early apoptotic cells at 0.25 uM after 48 hrs by Annexin V-FITC/PI based flow cytometric analysis (RVB=5.57%); type: functional

With `CCc1nc2c(C)cc(-c3ccc(CN4CCN(CCO)CC4)cc3)cn2c1NC(=O)OCc1cc(Cl)cc(Cl)c1` the inhibition [1] was “Active”, the IC50 [2] was 4.27 µM and the viability at 0.1 µM [3] was 92.8%. For the same compound, the viability at 0.5 µM [4] was 90.4%, the IC50 [5] was 0.63 µM and the Activity [6] was 14.72%. For the same compound, the Activity [7] was 90.16%, the Activity [8] was 7.65% and the Activity [9] was 8.43%. The Activity [10] was 2.63%, the IC50 [11] was 3.87 µM and the Activity [12] was “Non-Toxic”. The Activity [13] was 21.13%, the Activity [14] was “Toxic” and the Activity [15] was 0.83%. For the same compound, the Activity [16] was “Dde”, the IC50 [17] was 0.0034 µM and the viability at 0.25 µM [18] was 92%. For the same compound, the Activity [19] was 74.09%, the Activity [20] was 25.72% and the Activity [21] was “Dde”. The inhibition [22] was “Dde”, the Activity [23] was 18.57% and the Activity [24] was 1.73%. For the same compound, the Activity [25] was 0.68%, the Activity [26] was 0.28% and the Activity [27] was 10.61%. It also gave an Activity [28] of 59.56%, an IC50 [29] of 4.76 µM and an Activity [30] of 0.74%. The Activity [31] was “Non-Toxic”, the Activity [32] was “Dde” and the inhibition [33] was “Active”. It also gave an Activity [34] of 6%.
